From patent publication US20060287247A1, “Halogen-substituted thienyl compounds” (priority 2001, published 2006)

Key:
B. cereus ATCC 11778 = test: NCCLS broth microdilution MIC; format: cell-based, Bacillus cereus; conditions: C = B. cereus ATCC 11778
Experimental: (§1) Compounds according to this invention were screened for their in vitro activities against selected species of bacteria and fungi. The minimal inhibition concentration (MIC) of these compounds was determined using the National Committee for Clinical Laboratory Standards (NCCLS) broth microdilution assay in microtiter plates, as set forth in: (1) the guidelines of the National Committee for Clinical Laboratory Standards (NCCLS) Document M7-A4 (NCCLS, 1997); (2) the guidelines of the National Committee for Clinical Laboratory Standards (NCCLS) Document M11-A4 (NCCLS, 1997); and (3) the guidelines and reference method of the National Committee for Clinical Laboratory Standards (NCCLS) Document M27-T (NCCLS, 1995). For antifungal essays, the method recommended in Murray, P R., 1995 Manual of Clinical Microbiology (ASM Press, Washington, D.C.), was employed. […]

E. faecalis ATCC 29212 = test: NCCLS broth microdilution MIC; format: cell-based, Enterococcus faecalis; conditions: B = E. faecalis ATCC 29212
Experimental: as §1

E. coli ATCC 25922 = test: NCCLS broth microdilution MIC; format: cell-based; conditions: D = E. coli ATCC 25922
Experimental: as §1

5′-AAAAAGACAAAAA-3′ = format: binding; conditions: DNA sequence 5′-AAAAAGACAAAAA-3′; pH 7.0, 22° C.
Experimental: (§2) A number of compounds according to this invention were screened for their ability to bind to three DNA sites, using DNase I footprinting. Generally, the procedure described in Dervan, WO 98/50582 (1998), was followed.
(§3) A plasmid was prepared by hybridizing two sets of 5′-phosphorylated complementary oligonucleotides, one set being
(§4) The target sites and their complements are identified in bold underline.
(§5) The resulting duplexes were ligated to the large pUC19 AvaI/SalI restriction fragment. The 3′-P32 end-labeled EcoRI/PvuII fragment was prepared by digesting the plasmid with EcoRI and PvuII with simultaneous fill-in using Sequenase v. 2.0, [alpha-P32]-deoxyadenosine-5′-triphosphate, and [alpha-P32]-thymidine-5′-triphosphate, and isolating the cloned fragment by nondenaturing gel electrophoresis. Standard methods were used for all DNA manipulations, including A and G sequencing. See, e.g., Maxam et al., Methods Enzymol., 1980, 65, 499-560; Iverson et al., Methods Enzymol., 1987, 15, 7823-7830; and Sambrook et al., 1989, Molecular Cloning, 2nd ed., Cold Spring Harbor Laboratory Press: Cold Spring Harbor, N.Y.
(§6) Quantitative DNase I footprint titration experiments were carried out as described previously (Dervan, WO 98/50582, 1998, “Dervan '582”) with the following changes. All reactions were carried out in a total volume of 400 μL, with polyamide stock solution or water added to 15,000 cpm radiolabeled restriction fragment affording final solution conditions of 10 mM Tris.HCl, 10 mM KCl, 10 mM MgCl2, 5 mM CaCl2, pH 7.0 and 0.01 nM, 0.1 nM, 1.0 nM, 10.0 nM polyamide or no polyamide for reference lanes. The polyamides were allowed to equilibrate at 22° C. for 16 hr. Footprinting reactions were initiated with addition of 10 μL of a DNase I stock solution (at the appropriate concentration to give ˜50% intact DNA) containing 1 mM DTT and allowed to proceed for 7 min at 22° C. The reactions were stopped, ethanol precipitated, resuspended in loading buffer, heat denatured, and placed on ice as described in Dervan '582. The reaction products were separated on a precast 8% polyacrylamide denaturing sequencing Castaway gel with 32 preformed wells from Stratagene in 1× TBE at 2000 V. Gels were dried according to the manufacturer's instructions and exposed to a storage phosphor screen (Molecular Dynamics). Quantitation and data analysis were carried out as described in Dervan '582.

5′-AAAAAGCAAAAA-3′ = format: binding; conditions: DNA sequence 5′-AAAAAGCAAAAA-3′; pH 7.0, 22° C.
Experimental: as §2, §3, §4, §5, §6

5′-AAAAAGTACAAAAA-3′ = format: binding; conditions: DNA sequence 5′-AAAAAGTACAAAAA-3′; pH 7.0, 22° C.
Experimental: as §2, §3, §4, §5, §6

S. aureus ATCC 29213 = test: NCCLS broth microdilution MIC; format: cell-based, Staphylococcus aureus; conditions: A = S. aureus ATCC 29213
Experimental: as §1

C. albicans ATCC 38247 = test: NCCLS broth microdilution MIC (antifungal); format: cell-based; conditions: E = C. albicans ATCC 38247
Experimental: as §1

S. pneumoniae ATCC 49619 = test: NCCLS broth microdilution MIC; format: cell-based, Streptococcus pneumoniae; conditions: F = S. pneumoniae ATCC 49619
Experimental: as §1

SMILES	Minimum Inhibitory Concentration (MIC) (B. cereus ATCC 11778)	Minimum Inhibitory Concentration (MIC) (E. faecalis ATCC 29212)	Minimum Inhibitory Concentration (MIC) (E. coli ATCC 25922)	Equilibrium Association Constant (Ka) (5′-AAAAAGACAAAAA-3′)	Equilibrium Association Constant (Ka) (5′-AAAAAGCAAAAA-3′)	Equilibrium Association Constant (Ka) (5′-AAAAAGTACAAAAA-3′)	Minimum Inhibitory Concentration (MIC) (S. aureus ATCC 29213)	Minimum Inhibitory Concentration (MIC) (C. albicans ATCC 38247)	Minimum Inhibitory Concentration (MIC) (S. pneumoniae ATCC 49619)
CN(C)CCCNC(=O)CCNC(=O)c1cc(NC(=O)c2cc(NC(=O)CCNC(=O)c3cc(NC(=O)c4cc(NC(=O)c5cc(Br)c(Br)s5)cn4C)cn3C)cn2C)cn1C [Id-1]	+++ (+++ = MIC ≦4)	+++ (+++ = MIC ≦4)	>32 µg/mL	≧1 × 10^11 M^−1	≧1 × 10^11 M^−1	≧1 × 10^11 M^−1	+++ (+++ = MIC ≦4)	>32 µg/mL	+++ (+++ = MIC ≦4)
Cn1cc(NC(=O)c2cc(NC(=O)CCNC(=O)c3cc(NC(=O)c4cc(NC(=O)c5cc(Br)c(Br)s5)cn4C)cn3C)cn2C)cc1C(=O)NCCC(=O)NCCCCCCN [Id-2]	+++ (+++ = MIC ≦4)	+++ (+++ = MIC ≦4)	>32 µg/mL	5e+08 M⁻¹	5e+08 M⁻¹	5e+09 M⁻¹	+++ (+++ = MIC ≦4)	>32 µg/mL	+++ (+++ = MIC ≦4)
CC(C)N(CCNC(=O)CCNC(=O)c1cc(NC(=O)c2cc(NC(=O)CCNC(=O)c3cc(NC(=O)c4cc(NC(=O)c5cc(Br)c(Br)s5)cn4C)cn3C)cn2C)cn1C)C(C)C [Id-3]	+++ (+++ = MIC ≦4)	+++ (+++ = MIC ≦4)	>32 µg/mL	5e+08 M⁻¹	5e+08 M⁻¹	5e+09 M⁻¹	+++ (+++ = MIC ≦4)	>32 µg/mL	+++ (+++ = MIC ≦4)
Cn1cc(NC(=O)c2cc(NC(=O)CCNC(=O)c3cc(NC(=O)c4cc(NC(=O)c5cc(Br)c(Br)s5)cn4C)cn3C)cn2C)cc1C(=O)NCCC(=O)NCC(C)(C)CN [Id-4]	+++ (+++ = MIC ≦4)	+++ (+++ = MIC ≦4)	>32 µg/mL	1e+10 M⁻¹	5e+09 M⁻¹	5e+11 M⁻¹	+++ (+++ = MIC ≦4)	>32 µg/mL	+++ (+++ = MIC ≦4)
Cn1cc(NC(=O)c2cc(NC(=O)CCNC(=O)c3cc(NC(=O)c4cc(NC(=O)c5cc(Br)c(Br)s5)cn4C)cn3C)cn2C)cc1C(=O)NCCC(=O)NCCN1CCCCC1 [Id-5]	+++ (+++ = MIC ≦4)	+++ (+++ = MIC ≦4)	>32 µg/mL	2e+10 M⁻¹	2e+09 M⁻¹	1e+11 M⁻¹	+++ (+++ = MIC ≦4)	>32 µg/mL	+++ (+++ = MIC ≦4)
CCN(CC)CCCNC(=O)CCNC(=O)c1cc(NC(=O)c2cc(NC(=O)CCNC(=O)c3cc(NC(=O)c4cc(NC(=O)c5cc(Br)c(Br)s5)cn4C)cn3C)cn2C)cn1C [Id-6]	+++ (+++ = MIC ≦4)	+++ (+++ = MIC ≦4)	>32 µg/mL	1e+10 M⁻¹	1e+10 M⁻¹	≧1 × 10^11 M^−1	+++ (+++ = MIC ≦4)	>32 µg/mL	+++ (+++ = MIC ≦4)
CN(C)CC(C)(C)CNC(=O)CCNC(=O)c1cc(NC(=O)c2cc(NC(=O)CCNC(=O)c3cc(NC(=O)c4cc(NC(=O)c5cc(Br)c(Br)s5)cn4C)cn3C)cn2C)cn1C [Id-7]	+++ (+++ = MIC ≦4)	+++ (+++ = MIC ≦4)	>32 µg/mL	5e+08 M⁻¹	5e+08 M⁻¹	≧1 × 10^11 M^−1	+++ (+++ = MIC ≦4)	>32 µg/mL	+++ (+++ = MIC ≦4)
Cn1cc(NC(=O)c2cc(NC(=O)CCNC(=O)c3cc(NC(=O)c4cc(NC(=O)c5ccc(Br)s5)cn4C)cn3C)cn2C)cc1C(=O)NCCC(=O)NCCCNC1CCCCC1 [Id-15]	+ (+ = MIC from 12 to 32, inclusive)	+ (+ = MIC from 12 to 32, inclusive)	–	5e+10 M⁻¹	5e+10 M⁻¹	≧1 × 10^11 M^−1	>32 µg/mL	>32 µg/mL	++ (++ = MIC between 4 and 12)
CN1CCCN(C(=O)CCNC(=O)c2cc(NC(=O)c3cc(NC(=O)CCNC(=O)c4cc(NC(=O)c5cc(NC(=O)c6ccc(Br)s6)cn5C)cn4C)cn3C)cn2C)CC1 [Id-16]	>32 µg/mL	>32 µg/mL	>32 µg/mL	5e+10 M⁻¹	5e+10 M⁻¹	≧1 × 10^11 M^−1	>32 µg/mL	>32 µg/mL	+++ (+++ = MIC ≦4)
